In general, IC50 refers to the concentration needed to halve the response being measured.

This experiment concerns the target T1, Human PPARα (Homo sapiens, UniProt Q07869).
T1 construct: host or cells: proprietary non-human mammalian cells
T1 sequence (Q07869 1-468): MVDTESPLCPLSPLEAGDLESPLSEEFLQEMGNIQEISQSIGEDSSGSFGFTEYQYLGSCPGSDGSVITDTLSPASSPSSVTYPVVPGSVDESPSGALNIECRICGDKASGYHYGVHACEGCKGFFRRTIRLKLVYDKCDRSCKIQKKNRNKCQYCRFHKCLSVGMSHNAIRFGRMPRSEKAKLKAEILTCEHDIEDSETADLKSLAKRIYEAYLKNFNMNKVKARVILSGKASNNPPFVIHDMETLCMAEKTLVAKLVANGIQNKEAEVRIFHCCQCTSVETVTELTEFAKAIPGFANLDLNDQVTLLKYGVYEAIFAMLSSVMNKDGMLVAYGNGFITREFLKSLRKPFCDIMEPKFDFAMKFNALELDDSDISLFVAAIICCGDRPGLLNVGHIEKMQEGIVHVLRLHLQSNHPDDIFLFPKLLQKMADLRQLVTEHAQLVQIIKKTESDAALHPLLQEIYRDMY
The experiment is described as follows: Human PPARα Reporter Assay (luciferase). Format: cell-based. Conditions: human PPARα reporter cells, overnight incubation, antagonism; read-out: Luciferase IC50. In outline: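 Non-human mammalian cells constitutively expressing human PPARα with a PPARα-responsive luciferase reporter were dosed with compounds right after plating. After overnight incubation, media removed and detection reagent added; luminescence taken as proportional to PPARα activation, agonist or antagonist mode.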
For orientation: Reporter assays use an easily measured gene product as a stand-in for the process of interest.
As for `CCn1c(CCCc2ccc(-c3cccc(C4(C(=O)O)CC4)c3)cc2)nn(Cc2ccc(C(C)(C)C)cc2)c1=O` [Example 13, 1-(4′-(3-(1-(4-(tert-Butyl)benzyl)-4-ethyl-5-oxo-4,5-dihydro-1H-1,2,4-triazol-3-yl)propyl)-[1,1′-biphenyl]-3-yl)cyclopropanecarboxylic acid], the IC50 worked out at 268 nM. The same measure for `CCn1c(CCCc2ccc(-c3ccc(OC)c(CC(=O)O)c3)cc2)nn(Cc2ccc(C(C)(C)C)cc2)c1=O` [Example 21, 2-(4′-(3-(1-(4-(tert-Butyl)benzyl)-4-ethyl-5-oxo-4,5-dihydro-1H-1,2,4-triazol-3-yl)propyl)-4-methoxy-[1,1′-biphenyl]-3-yl)acetic acid]: 25 nM. For the compound `CCn1c(CCCc2ccc(-c3ccc(N)cn3)cc2)nn(Cc2ccc(C(C)(C)C)cc2)c1=O` [Example 5, 3-(3-(4-(5-Aminopyridin-2-yl)phenyl)propyl)-1-(4-(tert-butyl)benzyl)-4-ethyl-1H-1,2,4-triazol-5(4H)-one], the IC50 turned out to be 43 nM.

On to `CCn1c(CCCc2ccc(-c3nc(NC(=O)OC(C)(C)C)co3)cc2)nn(Cc2ccc(C(C)(C)C)cc2)c1=O` [Example 25, tert-Butyl (2-(4-(3-(1-(4-(tert-butyl)benzyl)-4-ethyl-5-oxo-4,5-dihydro-1H-1,2,4-triazol-3-yl)propyl)phenyl)oxazol-4-yl)carbamate], for which the IC50 was determined as 184 nM. The same measure for `CCC(=O)NS(=O)(=O)c1cccc(-c2ccc(CCCc3nn(Cc4ccc(C(C)(C)C)cc4)c(=O)n3CC)cc2)c1` [Example 103, N-((4′-(3-(1-(4-(tert-Butyl)benzyl)-4-ethyl-5-oxo-4,5-dihydro-1H-1,2,4-triazol-3-yl)propyl)-[1,1′-biphenyl]-3-yl)sulfonyl)propionamide]: 436 nM. Consider `CCn1c(CCCc2ccc(-c3ccc(OC)c(NS(=O)(=O)c4ccccc4)c3)cc2)nn(Cc2ccc(C(C)(C)C)cc2)c1=O` [Example 151, 1-{[4-(tert-Butyl)phenyl]methyl}-4-ethyl-3-[3-(4-{4-methoxy-3-[(phenylsulfonyl)amino]phenyl}phenyl)propyl]-1,2,4-triazolin-5-one], for which the IC50 was determined as 61 nM. The same measure for `CCn1c(CCCc2ccc(-c3cccc(CC(=O)O)c3)cc2)nn(Cc2ccc(C(C)(C)C)c(Br)c2)c1=O` [Example 67, 2-(4′-(3-(1-(3-Bromo-4-(tert-butyl)benzyl)-4-ethyl-5-oxo-4,5-dihydro-1H-1,2,4-triazol-3-yl)propyl)-[1,1′-biphenyl]-3-yl)acetic acid]: 88 nM; for `CCn1c(CCCc2ccc(-c3ccc(OC)c(N(C)S(=O)(=O)c4ccccc4)n3)cc2)nn(Cc2ccc(C(C)(C)C)cc2)c1=O` [Example 110, 1-{[4-(tert-Butyl)phenyl]methyl}-4-ethyl-3-[3-(4-{5-methoxy-6-[N-methyl(phenylsulfonyl)amino](2-pyridyl)}phenyl)propyl]-1,2,4-triazolin-5-one]: 534 nM; for `CCn1c(CCCc2ccc(-c3ccc(OC)c(CNS(=O)(=O)Cc4ccccc4)c3)cc2)nn(Cc2ccc(C(C)(C)C)cc2)c1=O` [Example 188, 1-{[4-(tert-Butyl)phenyl]methyl}-4-ethyl-3-(3-{4-[4-methoxy-3-({[benzylsulfonyl]amino}methyl)phenyl]phenyl}propyl)-1,2,4-triazolin-5-one]: 430 nM. In the case of `CCn1c(CCCc2ccc(-c3ccc4occ(C(=O)O)c4c3)cc2)nn(Cc2ccc(C(C)(C)C)cc2)c1=O` [Example 89, 5-(4-(3-(1-(4-(tert-Butyl)benzyl)-4-ethyl-5-oxo-4,5-dihydro-1H-1,2,4-triazol-3-yl)propyl)phenyl)benzofuran-3-carboxylic acid], the IC50 is 251 nM. Consider `CCn1c(CCCc2ccc(-c3ccc(OC)c(CN)c3)cc2)nn(Cc2ccc(C(C)(C)C)cc2)c1=O` [Example 184, 3-(3-{4-[3-(Aminomethyl)-4-methoxyphenyl]phenyl}propyl)-1-{[4-(tert-butyl)phenyl]methyl}-4-ethyl-1,2,4-triazolin-5-one], for which the IC50 was 534 nM. The same measure for `CCn1c(CCCc2ccc(-c3cnc(C4(O)COC4)s3)cc2)nn(Cc2ccc(C(C)(C)C)cc2)c1=O` [Example 204, 1-(4-(tert-Butyl)benzyl)-4-ethyl-3-(3-(4-(2-(3-hydroxyoxetan-3-yl)thiazol-5-yl)phenyl)propyl)-1H-1,2,4-triazol-5(4H)-one]: 50 nM. The value for `CCn1c(CCCc2ccc(-c3ccc(OC(F)F)c(C(=O)O)c3)cc2)nn(Cc2ccc(C(C)(C)C)cc2)c1=O` [Example 121, 4′-(3-(1-(4-(tert-Butyl)benzyl)-4-ethyl-5-oxo-4,5-dihydro-1H-1,2,4-triazol-3-yl)propyl)-4-(difluoromethoxy)-[1,1′-biphenyl]-3-carboxylic acid] was 39 nM; that for `CCn1c(CCCc2ccc(-c3cccc(-c4nnn[nH]4)c3)cc2)nn(Cc2ccc(C(C)(C)C)cc2)c1=O` [Example 29, 3-(3-(3′-(1H-Tetrazol-5-yl)-[1,1′-biphenyl]-4-yl)propyl)-1-(4-(tert-butyl)benzyl)-4-ethyl-1H-1,2,4-triazol-5(4H)-one] was 1190 nM; that for `CCn1c(CCCc2ccc(-c3cnc(NS(=O)(=O)Cc4ccccc4)cn3)cc2)nn(Cc2ccc(C(C)(C)C)cc2)c1=O` [Example 119, N-(5-(4-(3-(1-(4-(tert-Butyl)benzyl)-4-ethyl-5-oxo-4,5-dihydro-1H-1,2,4-triazol-3-yl)propyl)phenyl)pyrazin-2-yl)-1-phenylmethanesulfonamide] was 941 nM. The same measure for `CCn1c(CCCc2ccc(-c3cc(C(=O)O)c(OC)cn3)cc2)nn(Cc2ccc(C(C)(C)C)cc2)c1=O` [Example 140, 2-(4-(3-(1-(4-(tert-Butyl)benzyl)-4-ethyl-5-oxo-4,5-dihydro-1H-1,2,4-triazol-3-yl)propyl)phenyl)-5-methoxyisonicotinic acid]: 396 nM.

Take `CCn1c(CCCc2ccc(-c3ccc(OC)c(CCNS(C)(=O)=O)c3)cc2)nn(Cc2ccc(C(C)(C)C)cc2)c1=O` [Example 183, 1-{[4-(tert-Butyl)phenyl]methyl}-4-ethyl-3-{3-[4-(4-methoxy-3-{2-[(methylsulfonyl)amino]ethyl}phenyl)phenyl]propyl}-1,2,4-triazolin-5-one]: the IC50 was 440 nM. The value for `CCn1c(CCCc2ccc(-c3cccc(CC(=O)O)c3)cc2)nn(Cc2ccc(Br)cc2)c1=O` [Example 37, 2-(4′-(3-(1-(4-Bromobenzyl)-4-ethyl-5-oxo-4,5-dihydro-1H-1,2,4-triazol-3-yl)propyl)-[1,1′-biphenyl]-3-yl)acetic acid] was 1960 nM; that for `CCOc1ccc(-c2ccc(CCCc3nn(Cc4ccc(C(C)(C)C)cc4)c(=O)n3CC)cc2)cc1C(=O)O` [Example 66, 4′-(3-(1-(4-(tert-Butyl)benzyl)-4-ethyl-5-oxo-4,5-dihydro-1H-1,2,4-triazol-3-yl)propyl)-4-ethoxy-[1,1′-biphenyl]-3-carboxylic acid] was 3 nM. The same measure for `CCn1c(CCCc2ccc(-c3ccc(OC)c(C(=O)O)c3)cc2)nn(Cc2ccc(C(C)(C)C)cc2)c1=O` [Example 65, 4′-(3-(1-(4-(tert-Butyl)benzyl)-4-ethyl-5-oxo-4,5-dihydro-1H-1,2,4-triazol-3-yl)propyl)-4-methoxy-[1,1′-biphenyl]-3-carboxylic acid]: 6 nM.

For the compound `CCn1c(CCCc2ccc(-c3cccc(C(O)C(=O)NC4CC4)c3)cc2)nn(Cc2ccc(C(C)(C)C)cc2)c1=O` (stereo not shown) [Example 56, 2-(4′-(3-(1-(4-(tert-Butyl)benzyl)-4-ethyl-5-oxo-4,5-dihydro-1H-1,2,4-triazol-3-yl)propyl)-[1,1′-biphenyl]-3-yl)-N-cyclopropyl-2-hydroxyacetamide], the IC50 was 330 nM. The value for `COc1ccc(-c2ccc(CCCc3nn(Cc4ccc(C(C)(C)C)cc4)c(=O)n3C)cc2)cc1CC(=O)O` [Example 106, 2-(4′-(3-(1-(4-(tert-Butyl)benzyl)-4-methyl-5-oxo-4,5-dihydro-1H-1,2,4-triazol-3-yl)propyl)-4-methoxy-[1,1′-biphenyl]-3-yl)acetic acid] was 26 nM; that for `CCn1c(CCCc2ccc(-c3ccc(OC)c(CC(=O)NS(C)(=O)=O)c3)cc2)nn(Cc2ccc(C(C)(C)C)cc2)c1=O` [Example 135, 2-(4′-(3-(1-(4-(tert-Butyl)benzyl)-4-ethyl-5-oxo-4,5-dihydro-1H-1,2,4-triazol-3-yl)propyl)-4-methoxy-[1,1′-biphenyl]-3-yl)-N-(methylsulfonyl)acetamide] was 192 nM; that for `CCn1c(CCCc2ccc(-c3ccc(OC)c(CC(=O)O)c3)c(C(F)(F)F)c2)nn(Cc2ccc(C(C)(C)C)cc2)c1=O` [Example 150, 2-(4′-(3-(1-(4-(tert-Butyl)benzyl)-4-ethyl-5-oxo-4,5-dihydro-1H-1,2,4-triazol-3-yl)propyl)-4-methoxy-2′-(trifluoromethyl)-[1,1′-biphenyl]-3-yl) acetic acid] was 126 nM. The value for `CCn1c(CCCc2ccc(-c3ccc(OC)c(NS(=O)(=O)c4ccc(Cl)nc4)n3)cc2)nn(Cc2ccc(C(C)(C)C)cc2)c1=O` [Example 113, 1-{[4-(tert-Butyl)phenyl]methyl}-3-{3-[4-(6-{[(6-chloro(3-pyridyl))sulfonyl]amino}-5-methoxy(2-pyridyl))phenyl]propyl}-4-ethyl-1,2,4-triazolin-5-one] was 8 nM.

The values above are taken from patent publication US9505728B2, “Triazolone compounds and uses thereof” (INCEPTION 2, INC., priority 2012, dated 2016).
